Laboratory results taken from US11351130B2, “Prevention and reversal of inflammation induced DNA damage” (Indiana University Research and Technology Corporation, priority 2017, dated 2022).

Legend:
[1] = test system: sensory neuronal cultures; test: phospho-H2AX immunoblotting in sensory neuronal cultures (Example 3); assay type: cell-based, rat
Protocol: (§1) Primary cultures of sensory neurons were harvested and maintained as previously described (Vasko et al., 2005). Briefly, adult male Sprague-Dawley rats (150-175 g; Harlan, Indianapolis, Ind.) were euthanized by CO2 asphyxiation and dorsal root ganglia (DRG) dissected from all spinal levels, transferred to into a collagenase solution (1 mg/ml), incubated for 1 hour at 37° C., then dissociated by mechanical agitation. Approximately 30,000 cells or 60,000 cells were plated into each well of 12-well or 6-well culture plates, respectively. All culture dishes were precoated with poly-D-lysine and laminin. Cells were maintained in F-12 media supplemented with 10% horse serum, 2 mM glutamine, 100 μg/ml Normocin™, 50 μg/ml penicillin, 50 μg/ml streptomycin, 50 μM 5-fluoro-2′-deoxyuridine (Invitrogen), 150 μM uridine, and 30 ng/ml of NGF in 3% CO2 at 37° C. Growth medium was changed every other day. Experiments were performed after cells were maintained in culture for 12-14 days.
Immunoblotting was performed as previously described (Kelley et al., 2014). Briefly, cells were lysed in RIPA buffer (Santa Cruz Biotechnology; Santa Cruz, Calif., USA) and protein was quantified using the Lowey assay. Proteins were separated by electrophoresis on a 4-12% SDS-polyacrylamide gel. The gel was transferred to a PVDF membrane and incubated overnight at 4° C. in Tris-buffered saline containing 0.1% Tween-20 (TBST) and 5% nonfat dry milk while gently agitating. Mouse monoclonal antihuman Ape1 antibodies (1:500), mouse monoclonal anti-phospho H2AX antibodies (1:1000), or (3-Actin monoclonal antibody (1:1000) were added to the blocking solution and incubated overnight at room temperature while gently agitating. Antibody binding was detected following appropriate secondary antibody methods using chemiluminescence. The density of the bands was measured using QUALITYONE® software from Bio-Rad (Hercules, Calif.) and data expressed as density normalized to actin.

[2] = test system: neuronal cultures derived from DRG; test: CGRP release from DRG neuronal cultures (Example 1); assay type: cell-based, rat; settings: for capsaicin-stimulated release of CGRP: 24 hours
Protocol: (§2) Dorsal root ganglia (DRG) were dissected from all spinal levels of adult male (150-175 g) Sprague-Dawley rats (Envigo, Indianapolis, Ind.) and the cells were dissociated as previously described (Kelley et al., 2014). Briefly, the rats were euthanized by CO2 asphyxiation. DRGs were transferred into collagenase solution (1 mg/ml) and incubated for 1 hour at 37° C. The digested DRGs were then rinsed with growth medium, centrifuged and dissociated by mechanical agitation. Approximately 30,000 cells were plated into each well of 12-well culture plates. All culture dishes were precoated with poly-D-lysine and laminin. Cells were maintained in F-12 media supplemented with 10% horse serum, 2 mM glutamine, 100 μg/ml Normocin, 50 μg/ml penicillin, 50 μg/ml streptomycin, 50 μM 5-fluoro-2′-deoxyuridine, 150 μM uridine, and 30 ng/ml of NGF in 3% CO2 at 37° C. Growth medium was changed every other day.
(§3) Small interfering RNAs to APE1 (APE1siRNA) and scrambled siRNA (SCsiRNA) controls were used to decrease APE1 protein expression in sensory neuronal cell cultures and as controls, respectively, as described previously (Vasko et al., 2005, Jiang et al., 2008a). On day 3 in culture, the growth media was replaced with 0.5 ml of Opti-MEM 1 media containing 100 nM of APE1siRNA (5′-[…]-3′ (SEQ ID NO:1)) or SCsiRNA (5′-[…]-3′(SEQ ID NO:2)); (Vasko et al., 2005)) and 10 μl of the transfecting reagent, Neuroporter. On the next day, 0.5 ml of the growth media without antibiotics was added to each well, and after an additional 24 hours the media containing siRNA was replaced with normal growth media.
(§4) Lentiviral constructs containing (1) the CMV promoter, HA-tagged APE1, IRES, and enhanced green fluorescent protein (EGFP); or (2) CMV, IRES, and EGFP were developed. DNA sequencing confirmed the constructs in the pLenti6-R4R2-V5 plasmid containing WT-, C65-, or 226+177-APE1-IRES-EGFP. For lentiviral infections, DRG cells were cultured 5 days before 150 pfu/cell of the lentivirus was added to the media. Two days later, the virus was removed and the cells grown an additional 5 days in regular media.
After neuronal cultures were treated with the appropriate drugs, the cultures were washed once with HEPES buffer consisting of (in mM) 25 HEPES, 135 NaCl, 3.5 KCl, 2.5 CaCl2, 1 MgCl2, 3.3 D-glucose, and 0.1% bovine serum albumin, pH 7.4 and maintained at 37° C. They were then incubated for successive 10-minute intervals with 0.4 ml of HEPES buffer alone (basal release), with buffer containing 30 nM capsaicin, then with buffer alone (to assess return to basal release). After each incubation, the buffer was removed and the amount of immunoreactive CGRP in each sample was measured using radioimmunoassay as previously described (Chen et al., 1996). After the release experiment, the cells in each well were in 0.4 ml of 0.1 M HCl10 minutes and an aliquot taken to measure total CGRP content in the cultures using radioimmunoassay. Total content (fmol/well) was calculated by adding the total amount released in all incubations to the amount measured in the cells. The release data is calculated as fmol released/well/10 minutes.

[3] = test system: neuronal cultures derived from DRG; test: pH2A.X immunoblotting in DRG neuronal cultures (Example 1); assay type: cell-based, rat
Protocol: as §2, §3, §4
Tissues or cells were harvested, lysed in RIPA buffer (Santa Cruz Biotechnology; Santa Cruz, Calif., USA), sonicated, and cleared of cellular debris by centrifuging at 4000 RPM for 2 minutes. Protein was quantified using Lowry assay, and electrophoresed in a 12% SDS-polyacrylamide gel. After electrophoresis, proteins were transferred to a PVDF membrane, and blocked with Tris-buffered saline containing 0.1% Tween-20 (TBST) and 5% nonfat dry milk for 1 hour at room temperature while gently agitating. Mouse monoclonal antihuman Ape1 antibodies (1:1000), mouse monoclonal anti-phospho H2AX antibodies (1:1000), mouse monoclonal anti-vinculin antibody (1:1000), and anti-Hemagglutinin (HA) antibody were added to the blocking solution and incubated for 2 hours at room temperature while gently agitating. Antibody binding was detected following appropriate secondary antibody methods using chemiluminescence. The density of the bands was measured using Quantity One software from Bio-Rad (Hercules, Calif.) and data expressed as density normalized to vinculin.

NFκB = test: NF-κB luciferase reporter transactivation assay; assay type: cell-based; settings: read-out: inhibition of NFκB binding to the reporter construct, IC50
Protocol: Reporter assays were performed as previously described (Georgiadis et al., 2008; Kelley et al., 2011; Cardoso et al., 2012b; Luo et al., 2012). Cells were transfected with NF-κB-Luciferase construct containing an NF-κB-response promoter and driving the expression of a luciferase gene and a Renilla luciferase control reporter vector pRL-CMV. After a 24-hour transfection period, cells were lysed, and Firefly and Renilla luciferase activities were assayed using Renilla luciferase activity for normalization. All of the transfection experiments were performed in triplicate and repeated at least three times in independent experiments. Data are expressed as mean±standard error from a representative experiment, and Student's t tests were performed.

[4] = test system: sensory neuronal cultures; test: Neuronal cell viability (trypan blue exclusion); assay type: cell-based
Protocol: as §1
Sensory neuronal culture trypan blue exclusion analysis was performed as previously described (Vasko et al., 2011). Cells were detached by adding a 0.05% trypsin-EDTA solution and media to each well. An equal volume of 0.4% (w/v) trypan blue in PBS was added to the cell suspension and the numbers of living cells (i.e., those that exclude the dye) were counted under a phase contrast microscope using a hemacytometer. Percent survival was calculated as the percent of live cells divided by the total cell number (including dead and live cells).

APE1 [5] = molecular target: T1, APE1 (Homo sapiens, UniProt P27695); test: AP endonuclease DNA repair assay; assay type: biochemical; settings: APX2009 in the nanomolar range
Protocol: Inhibition or enhancement of APE1 DNA repair endonuclease activity was performed as previously described (Bapat et al., 2010). The APE1 repair activity assay was performed in a plate assay using two annealed oligonucleotides (5′-6-FAM-GCCCCC*[…]-3′ (SEQ ID NO:3) and 3′-Q-[…]-5′ (SEQ ID NO:4)) containing a quencher on one strand and a fluorescent 6-FAM label with tetrahydrofuran as an AP site mimic. Oligo cleavage at the AP mimic site results in 6-FAM release and detection. The fluorescence was read at five, one-minute intervals using a Tecan Ultra plate reader (Chemical Genomics Core, Indiana University School of Medicine). The rate of the reaction was used to determine the change in APE1 repair activity as compared to the vehicle control.

[6] = test system: sensory neurons in culture; assay type: cell-based, rat
Protocol: as §1
For release experiments, cell cultures were washed with HEPES buffer consisting of (in mM) 25 HEPES, 135 NaCl, 3.5 KCl, 2.5 CaCl2, 1 MgCl2, 3.3 D-glucose, and 0.1% bovine serum albumin, pH 7.4 and maintained at 37° C. They then were incubated for successive 10-minute intervals with 0.4 ml of HEPES buffer alone (basal release), with buffer containing 30 nM capsaicin, then with buffer alone (to assess return to basal release). After each incubation, the buffer was removed and the amount of immunoreactive calcitonin-gene related peptide (CGRP) in each sample was measured using radioimmunoassay (RIA) as previously described (Chen et al., 1996). At the end of the release protocol, CGRP is extracted from the cultures and total content measured using RIA.

APE1 [7] = molecular target: T1, APE1; test: redox APE1 electrophoretic mobility shift assay (EMSA); assay type: biochemical; parameters: Purified APE1 was reduced with 1.0 mM DTT for 10 minutes; settings: read-out: redox inhibition IC50
Protocol: EMSAs were performed as described (Luo et al., 2012). Purified APE1 was reduced with 1.0 mM DTT for 10 minutes and diluted to a final concentration of 0.006 mM with 0.02 mM DTT in PBS. Reduced APE1 was added to EMSA reaction buffer (10 mM Tris (pH 7.5), 50 mM NaCl, 1 mM MgCl2, 1 mM EDTA, 5% [vol/vol] glycerol) with […] 0.007 mM protein mixture (1:1) of purified truncated c-Jun and c-Fos proteins containing DNA-binding domain and leucine zipper and incubated for 30 minutes at room temperature. The EMSA assay was performed as previously described (Luo et al., 2008; Nyland et al., 2010; Kelley et al., 2011; Luo et al., 2012).

T1 sequence (P27695 whole entry, species assumed): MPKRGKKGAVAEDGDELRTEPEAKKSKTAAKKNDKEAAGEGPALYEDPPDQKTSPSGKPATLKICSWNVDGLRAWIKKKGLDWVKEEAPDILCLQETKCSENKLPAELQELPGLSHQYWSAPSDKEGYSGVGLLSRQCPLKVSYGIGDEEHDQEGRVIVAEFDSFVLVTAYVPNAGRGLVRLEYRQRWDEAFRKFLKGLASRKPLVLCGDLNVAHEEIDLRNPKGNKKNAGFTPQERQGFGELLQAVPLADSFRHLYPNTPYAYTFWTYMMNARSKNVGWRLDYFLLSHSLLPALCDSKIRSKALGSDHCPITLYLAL

## N.N.[Cl][Pt][Cl] [cisplatin, reference compound]
[1]; 10 μM cisplatin for 24 or 48 hours
  levels of pH2AX: significant increase in the levels of pH2AX

## COc1cc(CNC(=O)CCCC/C=C/C(C)C)ccc1O [capsaicin]
[2]; 30 nM capsaicin, 10-minute period, no inflammatory mediator
  release of CGRP stimulated by capsaicin: approximately 10 % of the total content

## Cc1ccc2c(c1)C1(CCN(CCc3nc(-c4ccccc4)oc3C)CC1)OC(=O)N2 [RS 50493]
[3]; 0.3 μg/ml MCP-1 24 hr, RS 50493 1 μM
  pH2A.X expression relative to the expression elicited by MCP-1 alone: 8.5%
[3]; 3.0 μg/ml LPS 24 hr, LPS-RS 2 μg/ml, RS 50493 1 μM, from 1 hour prior
  reduction of LPS-induced increase in pH2A.X expression: 92.5 % reduction
[2]; 0.3 μg/ml MCP-1, RS 50493 1 μM
  effect on MCP-1-induced augmentation of CGRP release: prevented
[2]; 3.0 μg/ml LPS, LPS-RS 2 μg/ml, RS 50493 1 μM
  effect on LPS-induced decrease in CGRP release: blocked the decrease in release induced by LPS

## MCP-1: Recombinant rat CCL2/MCP-1 protein
[3]; LPS 1 μg/ml, MCP-1 100 ng/ml
  levels of pH2A.X over time: induced pH2A.X expression
  onset of pH2A.X increase: 16 hours
  peak of pH2A.X increase: 24 hours
[3]; SCsiRNA-treated cultures, 24 hours, LPS 3 μg/ml, MCP-1 0.3 μg/ml
  pH2A.X expression: enhanced expression of pH2A.X
[2]; 0.3 μg/ml MCP-1, 24 hours
  CGRP release relative to the release in the absence of MCP-1: 142.8%
[2]; 0.3 μg/ml
  capsaicin-stimulated release of CGRP: 13.0±0.8 % of total content
[2]; 1.0 μg/ml
  capsaicin-stimulated release of CGRP: 15.0±1.0 % of total content
[2]; 10.0 μg/ml
  capsaicin-stimulated release of CGRP: 6.3±1.0 % of total content
[2]; APE1siRNA-treated cultures, MCP-1 0.3 μg/ml
  release of CGRP stimulated by capsaicin: caused a decrease in CGRP release
[2]; SCsiRNA-treated cultures, MCP-1 0.3 μg/ml
  release of CGRP stimulated by capsaicin: enhanced the release of CGRP
[2]; data not shown
  total content of CGRP compared with vehicle: similar

## CCC/C(=C\C1=C(OC)C(=O)c2ccccc2C1=O)C(=O)N(C)C [APX2007, (2E)-2-[(3-methoxy-1,4-dioxo-1,4-dihydronapthalen-2-yl)methylidene]-N,N-dimethylpentanamide]
NFκB
  IC50: 7 µM
[4]; 20 μM for 48 hours prior to and throughout the cisplatin treatment (24 hours)
  effect on cisplatin-induced cell death: did not attenuate the cisplatin-induced cell death
[4]; 40 μM, 24 hours
  cell viability, drug alone: significant reduction in cell viability
[4]; 20 or 40 μM, 72 hours (data not shown)
  cell death, drug alone: significant increase in cell death
APE1 [5]
  APE1 repair (endonuclease) activity: no effect
[6]; 10 μM, 72 hour treatment, 10 μM cisplatin
  effect on cisplatin-induced reduction in capsaicin-evoked CGRP release: did not prevent the cisplatin-induced reduction in release
[6]; 10 μM, 72 hours
  CGRP release, drug alone: did not affect CGRP release
[6]; 20 μM, 72 hours
  capsaicin-stimulated release of CGRP, drug alone: significant increase in capsaicin-stimulated release
[1]; 20 μM for 48 hours prior to and throughout exposure to 10 μM cisplatin
  effect on cisplatin-induced pH2AX levels (DNA damage): neither APX2007 nor APX2032 (20 μM) altered the ability of cisplatin to produce DNA damage
APE1 [7]
  IC50: 2 µM
